Consider 20 molecules from ChEMBL document CHEMBL5518186, “Discovery of the cereblon-recruiting tubulin PROTACs effective in overcoming Taxol resistance in vitro and in vivo” (Eur J Med Chem, 2024).

In general, IC50 refers to the concentration at which inhibition is half-maximal.

The source made the active and inactive calls. No cut-off for these calls is given here.

For one assay, the system named is MCF7. Put plainly: Antiproliferative activity against human MCF7 cells incubated for 72 hrs. Type of assay: functional, cell-based. As to conditions: MCF7, 72 h.
A further assay concerns HepG2. Put plainly: Antiproliferative activity against human HepG2 cells incubated for 72 hrs. Type of assay: functional, cell-based. As to conditions: HepG2, 72 h.
The test system of the next assay is HeLa. Put plainly: Antiproliferative activity against human HeLa cells incubated for 72 hrs. Type of assay: functional, cell-based.
In the next assay the test system is A549. Put plainly: Antiproliferative activity against human A549 cells incubated for 72 hrs. It is filed as functional, cell-based. As to conditions: A549, 72 h.
For another assay, the system named is U-937. Put plainly: Antiproliferative activity against human U-937 cells incubated for 72 hrs. Type of assay: functional, cell-based. The settings on record: U-937, 72 h.
Another assay deals with MGC-803. Put plainly: Antiproliferative activity against human MGC-803 cells incubated for 72 hrs. Type of assay: functional, cell-based. The settings on record: MGC-803, 72 h.
Assay [1] deals with T1, Protein cereblon/Tubulin beta (Homo sapiens) (UniProt P68371+Q9H4B7+Q13509+P04350+Q3ZCM7+P07437+Q13885+Q9BVA1+Q9BUF5+Q96SW2+A6NNZ2). Put plainly: Protac activity at CRBN/beta-tubulin in human A549 cells assessed as reduction in beta-tubulin level at 0.01 to 1 uM incubated for 48 hrs by immunoblotting analysis. It is filed as cell-based. As to conditions: dose 0.01-1 µM. Background: In western blotting, separated proteins are transferred to a membrane and probed.

Assay [2] concerns the target Protein cereblon-alpha tubulin. Put plainly: (§1) Protac activity at CRBN/alpha-tubulin in human A549/Taxol cells assessed as reduction in alpha-tubulin level incubated for 48 hrs by immunoblotting analysis. It is filed as cell-based.
The target in assay [3] is T2, Protein cereblon-alpha tubulin (Homo sapiens) (UniProt P0DPH7+P68366+Q71U36+P68363+Q9BQE3+Q6PEY2+A6NHL2+Q9NY65+Q96SW2). The description is as §1. Type of assay: cell-based.
Assay [4] addresses T3, Protein cereblon/Tubulin beta-3 chain (Homo sapiens, UniProt Q13509+Q96SW2). Put plainly: Protac activity at CRBN/beta3-tubulin in human A549 cells assessed as reduction in beta3-tubulin level incubated for 48 hrs by immunoblotting analysis. Type of assay: cell-based.
For assay [5], the target named is T2, Protein cereblon-alpha tubulin (Homo sapiens). Put plainly: Protac activity at CRBN/alpha-tubulin in human A549 cells assessed as reduction in alpha-tubulin level at 0.01 to 1 uM incubated for 48 hrs by immunoblotting analysis. Type of assay: cell-based. The settings on record: dose 0.01-1 µM.
In assay [6] the target is Protein cereblon/Tubulin beta. Put plainly: (§2) Protac activity at CRBN/beta-tubulin in human A549 cells assessed as reduction in beta-tubulin level incubated for 48 hrs by immunoblotting analysis. It is filed as cell-based.
The target of assay [7] is T1, Protein cereblon/Tubulin beta (Homo sapiens). Described as §2. Type of assay: cell-based.
For assay [8], the target named is T3, Protein cereblon/Tubulin beta-3 chain. Put plainly: Protac activity at CRBN/beta3-tubulin in human A549 cells assessed as reduction in beta3-tubulin level at 0.01 to 1 uM incubated for 48 hrs by immunoblotting analysis. It is filed as cell-based. As to conditions: dose 0.01-1 µM.
Target sequence in this assay (Q13509 whole entry, looked up): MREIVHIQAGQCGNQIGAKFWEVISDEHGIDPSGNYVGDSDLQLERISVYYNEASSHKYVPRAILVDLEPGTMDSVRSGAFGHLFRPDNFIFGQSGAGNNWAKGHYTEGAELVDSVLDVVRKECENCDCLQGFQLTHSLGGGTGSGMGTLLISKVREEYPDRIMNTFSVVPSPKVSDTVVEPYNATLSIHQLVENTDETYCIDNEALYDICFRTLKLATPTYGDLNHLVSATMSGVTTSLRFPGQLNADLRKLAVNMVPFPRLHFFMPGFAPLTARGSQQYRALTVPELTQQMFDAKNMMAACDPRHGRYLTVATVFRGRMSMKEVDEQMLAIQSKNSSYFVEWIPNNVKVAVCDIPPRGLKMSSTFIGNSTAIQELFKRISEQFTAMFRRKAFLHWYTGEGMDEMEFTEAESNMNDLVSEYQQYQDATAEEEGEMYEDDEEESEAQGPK
Target sequence in this assay (Q96SW2 whole entry, looked up): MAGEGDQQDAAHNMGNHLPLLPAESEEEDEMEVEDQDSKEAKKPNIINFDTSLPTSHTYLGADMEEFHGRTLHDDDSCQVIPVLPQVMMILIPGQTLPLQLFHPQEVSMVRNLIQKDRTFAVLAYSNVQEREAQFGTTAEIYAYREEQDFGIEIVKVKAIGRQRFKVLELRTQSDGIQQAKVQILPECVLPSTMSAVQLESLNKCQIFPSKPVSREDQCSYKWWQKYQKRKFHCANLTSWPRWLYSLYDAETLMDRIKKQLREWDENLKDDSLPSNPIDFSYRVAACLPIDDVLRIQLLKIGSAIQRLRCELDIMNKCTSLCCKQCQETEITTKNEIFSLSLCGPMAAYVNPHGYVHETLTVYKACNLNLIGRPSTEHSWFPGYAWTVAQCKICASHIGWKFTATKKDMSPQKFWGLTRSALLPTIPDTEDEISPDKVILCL
The target is the same in assay [9]. Put plainly: Protac activity at CRBN/beta3-tubulin in human A549/Taxol cells assessed as reduction in beta3-tubulin level incubated for 48 hrs by immunoblotting analysis. Type of assay: cell-based.
Target sequence in this assay (Q13509 whole entry, looked up): as the sequence (Q13509 whole entry, looked up) above
Target sequence in this assay (Q96SW2 whole entry, looked up): as the sequence (Q96SW2 whole entry, looked up) above
The target of assay [10] is T2, Protein cereblon-alpha tubulin (Homo sapiens). Put plainly: Protac activity at CRBN/alpha-tubulin in human A549 cells assessed as reduction in alpha-tubulin level incubated for 48 hrs by immunoblotting analysis. It is filed as cell-based.
The target in assay [11] is Protein cereblon/Tubulin beta. Put plainly: (§3) Protac activity at CRBN/beta-tubulin in human A549/Taxol cells assessed as reduction in beta-tubulin level incubated for 48 hrs by immunoblotting analysis. Type of assay: cell-based.
In assay [12] the target is T1, Protein cereblon/Tubulin beta (Homo sapiens). Described as §3. Type of assay: cell-based.

Take `COc1ccc(/C=C\c2cc(OC)c(OC)c(OC)c2)cc1OC(=O)CCCCCN1C(=O)CCC(N2Cc3c(N)cccc3C2=O)C1=O` (stereo not drawn): the IC50 with MCF7, in the assay with HepG2, in the assay on HeLa, with A549, in the assay on U-937 and in the assay on MGC-803 was more than 5000 nM each time.
Consider `COc1ccc(/C=C\c2cc(OC)c(OC)c(OC)c2)cc1OCc1cn(CCCC(=O)Nc2cccc3c2C(=O)N(C2CCC(=O)NC2=O)C3=O)nn1` (stereo not drawn), for which the IC50 was more than 5000 nM in the assay with MCF7; 1600 nM in the assay with HepG2; more than 5000 nM with HeLa; 2760 nM with A549; more than 5000 nM with U-937; 1240 nM in the assay with MGC-803.
On to `COc1ccc(/C=C\c2cc(OC)c(OC)c(OC)c2)cc1OC(=O)CCCOCCc1cn(CCCCC(=O)Nc2cccc3c2C(=O)N(C2CCC(=O)NC2=O)C3=O)nn1` (stereo not drawn), for which the IC50 with MCF7, with HepG2, in the assay with HeLa, with A549, in the assay on U-937 and in the assay with MGC-803 was more than 5000 nM each time.
As to `COc1ccc(/C=C\c2cc(OC)c(OC)c(OC)c2)cc1OC(=O)CCCOCCc1cn(CCCCCC(=O)Nc2cccc3c2C(=O)N(C2CCC(=O)NC2=O)C3=O)nn1` (stereo not drawn), the IC50 in the assay on MCF7 was 2980 nM; in the assay with HepG2, 2880 nM; with HeLa it was more than 5000 nM; with A549, 3900 nM; in the assay on U-937, more than 5000 nM; in the assay on MGC-803, 3100 nM.
Turning to `COc1ccc(/C=C\c2cc(OC)c(OC)c(OC)c2)cc1OC(=O)CCCCN1C(=O)CCC(N2Cc3c(N)cccc3C2=O)C1=O` (stereo not drawn), the IC50 in the assay with MCF7, in the assay on HepG2, in the assay on HeLa, in the assay with A549, with U-937 and in the assay on MGC-803 was more than 5000 nM throughout.
Regarding `COc1ccc(/C=C\c2cc(OC)c(OC)c(OC)c2)cc1OC(=O)CCCCOCCc1cn(CCCCC(=O)Nc2cccc3c2C(=O)N(C2CCC(=O)NC2=O)C3=O)nn1` (stereo not drawn), the IC50 amounted to 263 nM with MCF7; 213 nM in the assay on HepG2; 1510 nM in the assay on HeLa; 374 nM in the assay on A549; 800 nM in the assay with U-937; 175 nM with MGC-803.
Regarding `COc1ccc(/C=C\c2cc(OC)c(OC)c(OC)c2)cc1OC(=O)CCCN1C(=O)CCC(N2Cc3c(N)cccc3C2=O)C1=O` (stereo not drawn), the IC50 in the assay with MCF7, in the assay on HepG2, in the assay on HeLa, in the assay on A549, with U-937 and in the assay on MGC-803 was more than 5000 nM throughout.
Turning to `COc1ccc(/C=C\c2cc(OC)c(OC)c(OC)c2)cc1OC(=O)CCCCCOCCc1cn(CCCCCC(=O)Nc2cccc3c2C(=O)N(C2CCC(=O)NC2=O)C3=O)nn1` (stereo not drawn), the IC50 in the assay with MCF7 is 2300 nM; with HepG2, 1990 nM; with HeLa, more than 5000 nM; in the assay with A549, 1760 nM; in the assay on U-937, more than 5000 nM; in the assay on MGC-803, 1790 nM.
Turning to `COc1ccc(/C=C\c2cc(OC)c(OC)c(OC)c2)cc1OC(=O)CCNc1cccc2c1C(=O)N(C1CCC(=O)NC1=O)C2=O` (stereo not drawn), the IC50 in the assay with MCF7, with HepG2, in the assay on HeLa, with A549, in the assay on U-937 and in the assay with MGC-803 was more than 5000 nM throughout.
As for `COc1ccc(/C=C\c2cc(OC)c(OC)c(OC)c2)cc1OC(=O)CCCCCNc1cccc2c1C(=O)N(C1CCC(=O)NC1=O)C2=O` (stereo not drawn), the IC50 came out at 17 nM with MCF7; 7 nM with HepG2; 23 nM with HeLa; 19 nM with A549; 6 nM in the assay on U-937; 9 nM in the assay with MGC-803. Besides, the result in [1], in assay [5] and in [8] was Active. The DC50 amounted to 114 nM in [2], 294 nM in assay [4], 165 nM in [6] and 52 nM in assay [11]. For the same molecule, the Activity result in [3], in assay [4], in [7], in assay [9], in [10] and in assay [12] was “Dose-Dependent Effect” in each case.
Take `COc1ccc(/C=C\c2cc(OC)c(OC)c(OC)c2)cc1OC(=O)CCCCCOCCc1cn(CCCC(=O)Nc2cccc3c2C(=O)N(C2CCC(=O)NC2=O)C3=O)nn1` (stereo not drawn): the 50% inhibitory concentration (IC50) with MCF7 was 2380 nM; with HepG2 it was 2300 nM; with HeLa it was 1900 nM; in the assay with A549, 1830 nM; in the assay on U-937 it was more than 5000 nM; in the assay with MGC-803 it was 1530 nM.
Consider `COc1ccc(/C=C\c2cc(OC)c(OC)c(OC)c2)cc1OC(=O)CCCOCCc1cn(CCCC(=O)Nc2cccc3c2C(=O)N(C2CCC(=O)NC2=O)C3=O)nn1` (stereo not drawn), for which the IC50 in the assay with MCF7 was 4230 nM; in the assay on HepG2 it was 3120 nM; in the assay with HeLa it was more than 5000 nM; in the assay with A549 it was 3750 nM; with U-937 it was more than 5000 nM; in the assay on MGC-803, 2350 nM.
In the case of `COc1ccc(/C=C\c2cc(OC)c(OC)c(OC)c2)cc1OCc1cn(CCCCCC(=O)Nc2cccc3c2C(=O)N(C2CCC(=O)NC2=O)C3=O)nn1` (stereo not drawn), the IC50 with MCF7, in the assay on HepG2, with HeLa, in the assay on A549, in the assay with U-937 and in the assay with MGC-803 was more than 5000 nM in each case.
For the molecule `COc1ccc(/C=C\c2cc(OC)c(OC)c(OC)c2)cc1OC(=O)CN1C(=O)CCC(N2Cc3c(N)cccc3C2=O)C1=O` (stereo not drawn), the IC50 with MCF7, in the assay on HepG2, in the assay on HeLa, in the assay on A549, in the assay with U-937 and with MGC-803 was more than 5000 nM each time.
On to `COc1ccc(/C=C\c2cc(OC)c(OC)c(OC)c2)cc1OC(=O)CCN1C(=O)CCC(N2Cc3c(N)cccc3C2=O)C1=O` (stereo not drawn), for which the IC50 in the assay on MCF7, in the assay on HepG2, in the assay with HeLa, with A549, in the assay on U-937 and in the assay on MGC-803 was more than 5000 nM each time.
As to `COc1ccc(/C=C\c2cc(OC)c(OC)c(OC)c2)cc1OC(=O)CCCCOCCc1cn(CCCC(=O)Nc2cccc3c2C(=O)N(C2CCC(=O)NC2=O)C3=O)nn1` (stereo not drawn), the IC50 in the assay with MCF7 was 247 nM; with HepG2, 128 nM; in the assay with HeLa it was 1270 nM; with A549 it was 544 nM; in the assay on U-937 it was 4320 nM; in the assay with MGC-803 it was 61 nM.
For `COc1ccc(/C=C\c2cc(OC)c(OC)c(OC)c2)cc1OC(=O)CNc1cccc2c1C(=O)N(C1CCC(=O)NC1=O)C2=O` (stereo not drawn), the 50% inhibitory concentration (IC50) in the assay on MCF7, with HepG2, with HeLa, in the assay on A549, with U-937 and in the assay on MGC-803 was more than 5000 nM each time.
Regarding `COc1ccc(/C=C\c2cc(OC)c(OC)c(OC)c2)cc1OCc1cn(CCCCC(=O)Nc2cccc3c2C(=O)N(C2CCC(=O)NC2=O)C3=O)nn1` (stereo not drawn), the IC50 was 4060 nM with MCF7; more than 5000 nM in the assay on HepG2; more than 5000 nM in the assay with HeLa; more than 5000 nM in the assay on A549; 1620 nM in the assay on U-937; more than 5000 nM in the assay with MGC-803.
Consider `COc1ccc(/C=C\c2cc(OC)c(OC)c(OC)c2)cc1OC(=O)CCCCOCCc1cn(CCCCCC(=O)Nc2cccc3c2C(=O)N(C2CCC(=O)NC2=O)C3=O)nn1` (stereo not drawn), for which the IC50 in the assay with MCF7 came to 417 nM; in the assay with HepG2 it was 242 nM; in the assay with HeLa, 1310 nM; with A549, 466 nM; in the assay on U-937 it was 8590 nM; in the assay on MGC-803, 195 nM.
Regarding `COc1ccc(/C=C\c2cc(OC)c(OC)c(OC)c2)cc1OC(=O)CCCCCOCCc1cn(CCCCC(=O)Nc2cccc3c2C(=O)N(C2CCC(=O)NC2=O)C3=O)nn1` (stereo not drawn), the IC50 in the assay on MCF7 is 2350 nM; in the assay with HepG2 it was 1920 nM; in the assay with HeLa it was more than 5000 nM; in the assay on A549 it was 2440 nM; in the assay on U-937, more than 5000 nM; in the assay with MGC-803, 1400 nM.
